Source: PMC12797721 (Cell Communication and Signaling : CCS, 2025)

Experiments:
C18ORF32 [1] = biological target: C18ORF32 (Homo sapiens, UniProt Q8TCD1, F19A/Y16A/Y23A/Y25A); experiment: isothermal titration calorimetry; type: binding
C18ORF32 [2] = biological target: C18ORF32 (Homo sapiens, UniProt Q8TCD1); experiment: isothermal titration calorimetry; type: binding
Sequence of C18ORF32 (Homo sapiens, UniProt Q8TCD1) (Q8TCD1 whole entry): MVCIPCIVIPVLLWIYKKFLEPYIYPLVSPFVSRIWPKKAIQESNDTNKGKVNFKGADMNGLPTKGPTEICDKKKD

Sequence of C18ORF32 (Homo sapiens, UniProt Q8TCD1, F19A/Y16A/Y23A/Y25A) (Q8TCD1 whole entry Y16A/F19A/Y23A/Y25A): as the sequence (Q8TCD1 whole entry) above, with Y16A, F19A, Y23A, Y25A counted along it

## C[N+](C)(C)CCO [choline]
C18ORF32 [1]
  Kd: 557 µM
C18ORF32 [2]
  Kd: 0.0678 µM
